Experimental data as given in PMC2216936 (The Journal of General Physiology, 1995).
pIC50: −log10 of the molar value.

How the values were obtained:
[1] = biological target: voltage-gated sodium channel (sheep brain synaptoneurosomes; isoform not stated); assay: inhibition of [3H]-BTX-B radioligand binding at […] C; parameters: species or system Ovis aries
[2] = tested on: voltage-gated sodium channel (GH3 cells; isoform not stated); assay: whole-cell voltage clamp, block of peak INa; assay type: cell-based

pIC50 [1]: 5.48 | pIC50 [2]: 4.57
SMILES: CCCCN(CCCC)CCNC(=O)c1ccc(N=[N+]=[N-])cc1 [DNB-AB, N-(2-di-N-butyl-aminoethyl)-4-azidobenzamide]
